Structures can show the parent of a compound that is named as a salt.
The compounds below were run against T1, mGlyT-1b (Mus musculus, UniProt P28571) (assay: Glycine uptake inhibition assay (mGlyT-1b), [3H]-glycine uptake in transfected Flp-in-CHO cells). Settings: Flp-in-CHO cells transfected with mGlyT-1b cDNA; [3H]-glycine 60 nM and 25 μM non-radioactive glycine; 20 min preincubation at 22° C.; read-out: IC50 (μM) at GlyT-1; Ic50 (hglyt1b).
T1 construct: host or cells: Flp-in-CHO
T1 sequence (P28571 1-651 isoform P28571-2): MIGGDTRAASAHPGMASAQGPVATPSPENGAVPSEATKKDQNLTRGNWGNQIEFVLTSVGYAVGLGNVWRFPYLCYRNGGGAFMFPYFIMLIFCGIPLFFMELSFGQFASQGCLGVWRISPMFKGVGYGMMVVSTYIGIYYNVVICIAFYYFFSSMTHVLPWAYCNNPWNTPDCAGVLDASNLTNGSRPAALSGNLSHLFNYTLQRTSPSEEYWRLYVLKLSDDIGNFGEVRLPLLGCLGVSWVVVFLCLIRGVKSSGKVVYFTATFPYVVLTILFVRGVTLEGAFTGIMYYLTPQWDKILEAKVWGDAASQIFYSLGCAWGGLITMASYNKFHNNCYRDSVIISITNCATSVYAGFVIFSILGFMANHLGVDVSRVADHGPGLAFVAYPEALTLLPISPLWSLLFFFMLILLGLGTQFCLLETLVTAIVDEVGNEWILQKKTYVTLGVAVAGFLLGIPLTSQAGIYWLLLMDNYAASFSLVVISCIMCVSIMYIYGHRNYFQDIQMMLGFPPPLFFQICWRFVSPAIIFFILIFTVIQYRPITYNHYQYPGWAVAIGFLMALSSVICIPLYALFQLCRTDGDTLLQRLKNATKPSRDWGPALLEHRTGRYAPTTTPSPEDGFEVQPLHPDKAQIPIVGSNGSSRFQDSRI
Type: cell-based
Experimental: Nutrient mixture F-12 (Gibco Life-technologies), fetal bovine serum (FBS) 5%, (Gibco life technologies), Penicillin/Streptomycin 1% (Gibco life technologies), Hygromycin 0.6 mg/ml (Gibco life technologies), Glutamine 1 mM Gibco life technologies).
150 mM NaCl, 10 mM Hepes-Tris, pH 7.4, 1 mM CaCl2, 2.5 mM KCl, 2.5 mM MgSO4, 10 mM (+) D-glucose. Flp-in™-CHO (Invitrogen Cat n° R758-07) cells stably transfected with mGlyT1b cDNA.
Glycine Uptake Inhibition Assay (mGlyT-1b)
On day 1 mammalian cells, (Flp-in™-CHO), transfected with mGlyT-1b cDNA, were plated at the density of 40,000 cells/well in complete F-12 medium, without hygromycin in 96-well culture plates. On day 2, the medium was aspirated and the cells were washed twice with uptake buffer (UB). The cells were then incubated for 20 min at 22° C. with either (i) no potential competitor, (ii) 10 mM non-radioactive glycine, (iii) a concentration of a potential inhibitor. A range of concentrations of the potential inhibitor was used to generate data for calculating the concentration of inhibitor resulting in 50% of the effect (e.g. IC50, the concentration of the competitor inhibiting glycine uptake of 50%). A solution was then immediately added containing [^3H]-glycine 60 nM (11-16 Ci/mmol) and 25 μM non-radioactive glycine. The plates were incubated with gentle shaking and the reaction was stopped by aspiration of the mixture and washing (three times) with ice-cold UB. The cells were lysed with scintillation liquid, shaken 3 hours and the radioactivity in the cells was counted using a scintillation counter.

| Structure (SMILES) | IC50 [µM] |
| --- | --- |
| Cc1ccc([C@H](N)[C@H](O)c2ccc(OC3CCOC3)cc2)cc1Cl (mixture of isomers) [Example 55, rac-erythro-[2-Amino-2-(3-chloro-4-methyl-phenyl)-1-[4-(tetrahydro-furan-3-yloxy)-phenyl]-ethanol] | 0.131 |
| N[C@@H](c1ccc(Cl)c(Cl)c1)[C@H](O)c1ccc(OC2CCOC2)cc1 (mixture of isomers) [Example 42, rac-erythro-[rac-2-Amino-2-(3,4-dichloro-phenyl)-1-[4-(tetrahydro-furan-3-yloxy)-phenyl]-ethanol] | 0.052 |
| CCC(C)Oc1ccc([C@@H](O)[C@@H](N)c2ccc(Cl)c(Cl)c2)cc1 (mixture of isomers) [Example 51, rac-erythro-2-Amino-1-(4-sec-butoxy-phenyl)-2-(3,4-dichloro-phenyl)-ethanol] | 0.72 |
| CC(CO)(CCl)COc1ccc([C@@H](O)[C@@H](N)c2ccc(Cl)c(Cl)c2)cc1 (mixture of isomers) [Example 43, rac-erythro-[2-Amino-2-(3,4-dichloro-phenyl)-1-hydroxy-ethyl]-phenoxy]-2-chloromethyl-2-methyl-propan-1-ol hydrochloride] | 0.053 |
| N[C@@H](c1ccc(Cl)c(Cl)c1)[C@H](O)c1ccc(OC2CCOCC2)cc1F (racemic) [Example 33, rac-erythro-[2-Amino-2-(3,4-dichloro-phenyl)-1-[2-fluoro-4-(tetrahydro-pyran-4-yloxy)-phenyl]-ethanol hydrochloride] | 0.036 |
| N[C@@H](c1ccc(Cl)c(Cl)c1)[C@H](O)c1ccc(OC2CCOC2)cc1F (mixture of isomers) [Example 16, rac-erythro-[rac-2-Amino-2-(3,4-dichloro-phenyl)-1-[2-fluoro-4-(tetrahydro-furan-3-yloxy)-phenyl]-ethanol hydrochloride] | 0.039 |
| CS(=O)(=O)c1cccc(-c2ccc([C@@H](O)[C@@H](N)c3ccc(Cl)c(Cl)c3)nc2)c1 (racemic) [Example 11, rac-erythro-[2-Amino-2-(3,4-dichloro-phenyl)-1-[5-(3-methanesulfonyl-phenyl)-pyridin-2-yl]-ethanol bistrifluoroacetate] | 0.097 |
| Cc1nc(OC(C)C)ccc1[C@@H](O)[C@@H](N)c1ccc(Cl)c(Cl)c1 (racemic) [Example 27, rac-erythro-[2-Amino-2-(3,4-dichloro-phenyl)-1-(6-isopropoxy-2-methyl-pyridin-3-yl)-ethanoldihydrochloride] | 0.259 |
| Cc1cc([C@@H](O)[C@@H](N)c2ccc(Cl)c(Cl)c2)cnc1OC1CCOCC1 (racemic) [Example 26, rac-erythro-[2-Amino-2-(3,4-dichloro-phenyl)-1-[5-methyl-6-(tetrahydro-pyran-4-yloxy)-pyridin-3-yl]-ethanoldihydrochloride] | 0.239 |
| N[C@@H](c1ccc(Cl)c(Cl)c1)[C@H](O)c1ccc(OCC2CCOCC2)cc1 (racemic) [Example 45, rac-erythro-[2-Amino-2-(3,4-dichloro-phenyl)-1-[4-(tetrahydro-pyran-4-ylmethoxy)-phenyl]-ethanol] | 0.147 |
| Cc1nc(OC2CCOC2)ccc1[C@@H](O)[C@@H](N)c1ccc(Cl)c(Cl)c1 (mixture of isomers) [Example 15, rac-erythro-[rac-2-Amino-2-(3,4-dichloro-phenyl)-1-[2-methyl-6-(tetrahydro-furan-3-yloxy)-pyridin-3-yl]-ethanoldihydrochloride] | 0.021 |
| CN[C@@H](c1ccc(Cl)c(Cl)c1)[C@H](O)c1ccc(-c2cncc(F)c2)cc1 (racemic) [Example 39, rac-erythro-[2-(3,4-Dichloro-phenyl)-1-[4-(5-fluoro-pyridin-3-yl)-phenyl]-2-methylamino-ethanol hydrochloride] | 0.208 |
| N[C@@H](c1ccc(Cl)c(Cl)c1)[C@H](O)c1ccc(OC2CCOCC2)cn1 (racemic) [Example 25, rac-erythro-[2-Amino-2-(3,4-dichloro-phenyl)-1-[5-(tetrahydro-pyran-4-yloxy)-pyridin-2-yl]-ethanoldihydrochloride] | 0.216 |
| N[C@@H](c1ccc(Cl)cc1)[C@H](O)c1ccc(OC2CCCCC2)cc1 (racemic) [Example 53, rac-erythro-2-Amino-2-(4-chloro-phenyl)-1-(4-cyclohexyloxy-phenyl)-ethanol] | 1.03 |

Other lines, results leading:

| IC50 [µM] | Structure (SMILES) |
| --- | --- |
| 0.113 | COc1cccc(-c2cnc([C@@H](O)[C@@H](N)c3ccc(Cl)c(Cl)c3)c(F)c2)c1 (racemic) [Example 13, rac-erythro-[2-Amino-2-(3,4-dichloro-phenyl)-1-[3-fluoro-5-(3-methoxy-phenyl)-pyridin-2-yl]-ethanoldihydrochloride] |
| 0.158 | N[C@@H](c1ccc(C(F)(F)F)c(F)c1)[C@H](O)c1ccc(-c2cccnc2)cc1 (racemic) [Example 95, rac-erythro-2-Amino-2-(3-fluoro-4-trifluoromethyl-phenyl)-1-(4-pyridin-3-yl-phenyl)-ethanol] |
| 0.385 | COc1cccc(-c2ccc([C@@H](O)[C@@H](N)c3ccc(Cl)cc3)cc2)c1 (racemic) [Example 72, rac-erythro-2-Amino-2-(4-chloro-phenyl)-1-(3′-methoxy-biphenyl-4-yl)-ethanol] |
| 0.462 | N[C@@H](c1ccc(Cl)cc1)[C@H](O)c1ccc(-c2ccccc2Cl)cc1 (racemic) [Example 73, rac-erythro-2-Amino-1-(2′-chloro-biphenyl-4-yl)-2-(4-chloro-phenyl)-ethanol] |
| 0.047 | CS(=O)(=O)c1cncc(-c2ccc([C@@H](O)[C@@H](N)c3ccc(Cl)c(Cl)c3)cc2)c1 (racemic) [Example 82, rac-erythro-2-Amino-2-(3,4-dichloro-phenyl)-1-[4-(5-methanesulfonyl-pyridin-3-yl)-phenyl]-ethanol] |
| 0.094 | Cc1ccc([C@H](N)[C@H](O)c2ccc(-c3cncc(F)c3)cc2)cc1Cl (racemic) [Example 93, rac-erythro-2-Amino-2-(3-chloro-4-methyl-phenyl)-1-[4-(5-fluoro-pyridin-3-yl)-phenyl]-ethanol] |
| 0.433 | N[C@@H](c1ccc(Cl)cc1)[C@H](O)c1ccc(OC2CCCC2)cc1 (racemic) [Example 48, rac-erythro-[2-Amino-2-(4-chloro-phenyl)-1-(4-cyclopentyloxy-phenyl)-ethanol hydrochloride] |
| 0.412 | N[C@@H](c1ccc(Cl)c(Cl)c1)[C@H](O)c1ccc(-c2cccc([N+](=O)[O-])c2)cc1 (racemic) [Example 103, rac-erythro-2-Amino-2-(3,4-dichloro-phenyl)-1-(3′-nitro-biphenyl-4-yl)-ethanol] |
| 0.3 | C[C@@](O)(c1ccc(-c2ccccc2)cc1)[C@@H](N)c1ccc(Cl)cc1 (racemic) [Example 36, rac-erythro-[1-Amino-2-biphenyl-4-yl-1-(4-chloro-phenyl)-propan-2-ol trifluoroacetate] |
| 0.18 | N[C@@H](c1ccc(Cl)cc1)[C@H](O)c1ccc(-c2ccccc2F)cc1 (racemic) [Example 68, rac-erythro-2-Amino-2-(4-chloro-phenyl)-1-(2′-fluoro-biphenyl-4-yl)-ethanol] |
| 0.09 | N[C@@H](c1ccc(Cl)cc1)[C@H](O)c1ccc(-c2cccnc2)cc1 (racemic) [Example 63, rac-erythro-2-Amino-2-(4-chloro-phenyl)-1-(4-pyridin-3-yl-phenyl)-ethanol hydrochloride] |
| 0.733 | N[C@@H](c1ccc(C(F)(F)F)c(F)c1)[C@H](O)c1ccc(-c2cncc(F)c2)cc1 (racemic) [Example 96, rac-erythro-2-Amino-1-[4-(5-fluoro-pyridin-3-yl)-phenyl]-2-(3-fluoro-4-trifluoromethyl-phenyl)-ethanol] |
| 0.173 | CC(=O)Nc1cccc(-c2ccc([C@@H](O)[C@@H](N)c3ccc(Cl)cc3)cc2)c1 (racemic) [Example 67, rac-erythro-N-[4′-[2-Amino-2-(4-chloro-phenyl)-1-hydroxy-ethyl]-biphenyl-3-yl]-acetamide] |

Source: patent publication US8367838B2, “Amines or amino alcohols as GLYT1 inhibitors” (Hoffmann-La Roche Inc., priority 2009, dated 2013)
